From ChEMBL document CHEMBL3507680, “University of Dundee, Gates Library screen for HepG2 cell viability” come the findings set out here.

A short description of the data set: Human HepG2 cell viability assay in 384 well format. The arrangement: dose 125 nL, time 70.5 hour; concentration not given beside the values. The note with it: HepG2 cells, read-out: Inhibition. The format is toxicity, cell-based.
`O=S(=O)(c1ccc(F)cc1)N1CCCCC1c1cc[nH]n1` (configuration not stated): the cytotoxicity at 70.5 h was -6.41%.
As for `CCN(CC)CCN1CCO[C@H]2[C@@H](OCc3ccncc3)CC[C@@H]21`, the figure is -1.93%; as for `CN1CCN(C(=O)c2[nH]nnc2Nc2ccccc2F)CC1`, -14.3%; as for `O=C(NC[C@H]1OC[C@@H](NC2CCCCC2)[C@@H]1O)c1cccs1`, -5.2%.
With `COC(=O)N1CCCC(C(=O)NCc2cc3cccc(OC)c3o2)C1` (configuration not stated) the figure was -6.62%; with `Cc1ccccc1CN1CCCN(C(=O)c2ccn(C)c(=O)c2)CC1`, -1.43%.
As for `O=C(CCc1ccc(OC(F)(F)F)cc1)N1CCCS1(=O)=O`, the figure is -3.82%; as for `CCNC(=O)[C@@H]1C[C@@H](N)CN1Cc1ccc2cccc(Cl)c2n1`, 20.1%; as for `CNC(=O)c1ccc2c(c1O)OC(C)(C)C2`, -4.08%.
As for `CC(C)c1nc2c(n1C)CCN(CCc1ccccn1)C2`, the cytotoxicity at 70.5 h was -4.15%.
As for `Cc1nc(CC2CCCN(Cc3nc4ccccc4c(=O)[nH]3)C2)no1` (configuration not stated), the figure is -7.59%; as for `CN1CCN(C(=O)N2CCCC(c3nccn3CC3CCC3)C2)CC1` (configuration not stated), -15.8%; as for `O=C(NC1CCN(Cc2ccc(F)cc2)CC1)c1ccc2c(c1)CCC2`, -6.88%.
For the molecule `Cc1ccc2c(c1)OC(C)CN2C(=O)CCc1cccnc1` (configuration not stated), the cytotoxicity at 70.5 h came to 1.51%.
With `COCCS(=O)(=O)N(Cc1ccsc1)c1ccccc1` the figure was 2.67%.
For `Cn1ccc(NC(=O)CN2C[C@H]3CC[C@@H]2CN(Cc2ccccn2)C3)n1`, the cytotoxicity at 70.5 h is -3.7%.
As for `O=C(Cc1ccccn1)N1CCc2nc(-c3cnccn3)nc(O)c2C1`, the figure is -4.01%.
On to `COc1cc(C#N)ccc1OC12CCCN(CC1)C2` (configuration not stated), for which the cytotoxicity at 70.5 h is -8.26%.
With `COc1cccc(CN2CCOC(Cn3nc(C)cc3C)C2)c1` (configuration not stated), the cytotoxicity at 70.5 h is -6.54%.
With `O=C(c1cc(C2CC2)on1)N1CC[C@]2(C[C@H](Oc3cccnc3)CO2)C1` the figure was -16.2%.
Consider `Cc1cc(CN(CCO)c2ccc(Br)cc2)on1`, for which the cytotoxicity at 70.5 h was -0.419%.
As for `CCNC(=O)N(C)C(c1ccccc1)c1ccccn1` (configuration not stated), the figure is -4.29%; as for `O=C(NC1CC(F)(F)C1)[C@]12COC[C@H]1CN(Cc1ccccc1)C2`, -9.36%.
Take `Cc1cnn(CC2CCCN2C(=O)Cn2nc(C)c(Cl)c2C)c1` (configuration not stated): the cytotoxicity at 70.5 h is -1.94%.
In the case of `CS(=O)(=O)N1CCC2(CC1)CC(NCc1ccco1)c1ccccc12` (configuration not stated), the cytotoxicity at 70.5 h was -1.03%.
In the case of `CCn1cnnc1C1CCN(C(=O)c2cc(F)ccc2OC)CC1`, the cytotoxicity at 70.5 h was -10.6%.
As for `COCCNC(=O)C1(c2ccccc2C)CCOCC1`, the figure is 17.1%; as for `CSc1cccc(CN(C)C(=O)c2ccc(C3CCCNC3)cc2)c1` (configuration not stated), -7.25%.
With `COCCOc1ncccc1C(=O)Nc1ccc(-n2cncn2)c(F)c1`, the cytotoxicity at 70.5 h was -6.17%.
Turning to `CCOC(=O)c1sc(NC(=O)CN(C)S(C)(=O)=O)c(C#N)c1C`, the cytotoxicity at 70.5 h is 26.2%.
As to `CC(C)c1nnc(C2CCN(CC(=O)Nc3cccnc3)CC2)o1`, the cytotoxicity at 70.5 h is -5.94%.
As for `CNS(=O)(=O)c1ccc(CNC(=O)c2cc(-c3ccccn3)no2)cc1`, the figure is -8.91%.
As for `Cn1ccc(C(=O)N2CCOC3(COCCN(CC4CC4)C3)C2)n1` (configuration not stated), the figure is -3.98%; as for `O=S(=O)(NCC(O)c1ccc(C(F)(F)F)cc1)C1CC1` (configuration not stated), 12.5%.
Consider `c1cnnc(N2CCCC(NCc3ccc(-n4cccn4)cc3)C2)c1` (configuration not stated), for which the cytotoxicity at 70.5 h is -4.64%.
With `CC(=O)N1C[C@H](NC(=O)c2ccnc(N)c2)[C@@H](C(C)C)C1` the figure was 3.14%; with `Cc1nc(O)c2nnn(C[C@H]3CCCN3C(=O)c3ccc(F)cc3)c2n1`, -4.53%.
As to `COCCN(C)CCN1CC2(CCN(C3CCSC3)CC2)OC1=O` (configuration not stated), the cytotoxicity at 70.5 h was -4.49%.
As for `Cc1nc(N2CCC3(CCCN(CCO)C3=O)C2)c2sccc2n1` (configuration not stated), the figure is -7.31%; as for `CCn1c(CN(C)C)nnc1C1CCN(Cc2cccc(C#N)c2)CC1`, -5.02%.
With `Cc1ccc(C(=O)N(Cc2ccc(F)cc2F)C2CC2)c(=O)[nH]1` the figure was -2.76%; with `COc1ccc(CC(C)(O)CNC(=O)c2cccs2)cc1` (configuration not stated), -15.5%.
As for `NC(=O)C1CCN(Cn2nc(-c3ccccc3)oc2=O)CC1`, the figure is -8.01%; as for `CS(=O)(=O)N1C[C@@H]2CC[C@H](C1)N(Cc1ccsc1)C2`, 34.2%; as for `C[C@@H]1CN(S(=O)(=O)N2CCCC2)CC[C@@]1(O)C1CCOCC1`, -14%.
As for `O=C(O)c1cc2c(nc1NCC1CC1)CCN(C1CCOC1)CC2` (configuration not stated), the cytotoxicity at 70.5 h is -4.26%.
With `CNc1cc(N2CCCC2CNCc2c[nH]nc2C(C)(C)C)ncn1` (configuration not stated) the figure was 0.0673%; with `COCCn1cc(C(=O)N2CCCC2c2cccs2)c2ccccc21` (configuration not stated), 7.25%; with `CC(C)S(=O)(=O)N1CCN(C(=O)c2cnn(C)c2Cl)CC1`, -12.2%.
`CN1CCOC(C(=O)Nc2nc(-c3ccc(Cl)cc3)n[nH]2)C1` (configuration not stated): the cytotoxicity at 70.5 h turned out to be 4.4%.
With `COc1cc(CNCC(O)c2cccc(F)c2)cc2c1OCO2` (configuration not stated) the figure was 1.4%; with `CN1CCC/C1=N\S(=O)(=O)c1ccc(NC(=O)c2cccs2)cc1`, -2.28%; with `c1cc(CN2CCO[C@H]3[C@H](OCCN4CCCC4)CC[C@@H]32)ccn1`, -11.7%.
`CCN(CC)CC(=O)N1CCN(CCCc2ccncc2)CC1`: the cytotoxicity at 70.5 h is -0.476%.
For `CS(=O)(=O)c1ncc(CN2CCCC(C(N)=O)C2)n1CC1CCCCC1` (configuration not stated), the cytotoxicity at 70.5 h is -1.8%.
With `CCc1ncc(C(=O)NCC2CCN(Cc3ccncc3)CC2)cn1` the figure was -5.64%; with `COC1CCN(CCNC(=O)C2CCCCC2)CC1`, -7.3%; with `O=C(c1ccoc1)N1CCC2(C1)CN(c1ncc(F)cn1)C2`, -0.91%.
As for `COc1ccc(C)cc1NC(=O)Nc1cnc(N2CCOCC2)nc1`, the figure is -0.928%.
With `CNC(=O)CCNC(=O)c1cc(Br)c2c(c1)OCCO2` the figure was -6.67%; with `COc1c(CNC2CCCOc3ccc(F)cc32)c(C(C)C)nn1C` (configuration not stated), -4.87%; with `Cc1nn(C)c(C)c1CCC(=O)Nc1nnc(C2CC2)s1`, 22.3%.
As for `O=C(C1COCCO1)N1CCN(CC(F)(F)F)c2ccccc21` (configuration not stated), the cytotoxicity at 70.5 h was -1.12%.
As for `CCC(Cn1ccc2[nH]c(=O)c(C#N)cc2c1=O)OC` (configuration not stated), the figure is -6.98%; as for `O=C(c1cccc(C2CCNC2)c1)N1CCC(c2ccncc2)CC1` (configuration not stated), -18.3%.
For the molecule `COCCN1C(=O)CO[C@H]2CN(Cc3cccc(OC)c3F)C[C@@H]21`, the cytotoxicity at 70.5 h was -4.24%.
As for `Cc1cncc(C(=O)N2C[C@@H](C(=O)O)[C@H](C(C)C)C2)c1`, the figure is 28.4%; as for `COCCc1noc(CN2CCCC2Cn2cccn2)n1` (configuration not stated), -9.31%; as for `CC(C)NC(=O)N1CCC2(CC1)Cc1ccccc1CNC2=O`, -4.51%.
Consider `O=C1CCC2(CCN(Cc3ncccn3)CC2)CN1CCCO`, for which the cytotoxicity at 70.5 h was -8.14%.
Take `NC(=O)CCN1CCc2onc(-c3ccccc3F)c2C1`: the cytotoxicity at 70.5 h is -11.6%.
With `COCCn1c(=O)n(Cc2cccc(F)c2F)c2cc(C(=O)O)ccc21` the figure was 18.8%.
As for `CC(C)=CCCN1CCN(C)C2(CCC(=O)N(C)CC2)C1` (configuration not stated), the figure is -6.95%.
As for `C=Cn1cc(CN2CCN(CC3(c4ccccc4)CC3)CC2)c(C)n1`, the figure is -2.78%; as for `CCN(CC)C(=O)N1CCN(CCc2ccncc2)CC1`, -7.09%; as for `O=C(C1CCN(S(=O)(=O)N2CCCC2)CC1)N1CCC2(CC1)OCCO2`, -7.18%.
On to `CN(C)C(=O)[C@H]1CC[C@@H]2[C@@H](CCN2Cc2ccccn2)O1`, for which the cytotoxicity at 70.5 h was 0.127%.
As for `Cc1nc(C2(O)CCCNCC2)sc1CCOc1ccc(F)cc1` (configuration not stated), the figure is 16.3%; as for `O=C(NCCn1nc2ccccn2c1=O)c1cccc2[nH]ncc12`, -16.6%; as for `CN(C)C(C(=O)N1CC(c2ccccn2)C1)c1ccc2c(c1)OCO2` (configuration not stated), -3.16%.
With `COC(=O)c1ccc2c(-c3ccnc(NCCO)n3)c[nH]c2c1` the figure was -1.71%; with `CCNCCC(Cc1ccccc1)c1ccco1` (configuration not stated), -8.72%.
As for `Oc1ccccc1CN1C[C@H](O)C[C@H]1c1nc(Cc2ccccc2)no1`, the figure is -6.19%.
Take `CNc1cccc(C2CCCN(C(=O)c3cccnc3)C2)n1` (configuration not stated): the cytotoxicity at 70.5 h stood at 20.4%.
With `CS(=O)(=O)N1CCC(CNC(=O)C2CCC2)CC1` the figure was 40.8%; with `c1ccc(CCc2noc(CN3CCC(N4CCSCC4)CC3)n2)cc1`, -2.58%.
With `Cc1ccc(N2CCOC(C)(C(=O)N(C)C)C2)nn1` (configuration not stated), the cytotoxicity at 70.5 h was -6.16%.
In the case of `Cc1nc(C2CCCN2Cc2ccc(S(=O)(=O)N(C)C)o2)no1` (configuration not stated), the cytotoxicity at 70.5 h was -5.97%.
With `O=C(NCCCn1ccnc1)c1csc2c1CCCC2` the figure was 15.4%; with `O=C(Nc1ccccc1Oc1cccc(F)c1)NC1CCS(=O)(=O)C1` (configuration not stated), 2.26%; with `COc1cc(F)ccc1N(C)Cc1ccncc1`, -1.33%.
As for `CNC(=O)N1C[C@H]2C[C@H](C(=O)NCc3cccnc3)[C@@H](C1)O2`, the figure is -4.91%.
As for `CC(C)(CNC(=O)C1CCCN(C(N)=O)C1)c1cccc(Cl)c1` (configuration not stated), the figure is 9.61%; as for `CC(C)c1noc(-c2ccc(NCCCN3CCCC(O)C3)nc2)n1` (configuration not stated), -6.37%.
As to `Cc1cccc(COc2ccc(C(C)NC(=O)CNC(N)=O)cc2)c1` (configuration not stated), the cytotoxicity at 70.5 h is -0.269%.
As for `O=C([C@H]1C[C@H]2OCC[C@H]2N(CCc2ccccc2)C1)N1CCCCO1`, the figure is -6.32%; as for `COc1ccc(OC)c(-c2cc(C(=O)NCC3(CO)CC3)n(C)n2)c1`, -5.05%.
